Measurements taken from patent publication US12357695B2, “Peptides and nanoparticles for intracellular delivery of molecules” (AADIGEN, LLC, priority 2019, dated 2025).
Square brackets hold non-standard residues; d marks the D form. Ends that are not written are not given here. Stearyl = stearyl group covalently linked to the N-terminus; βAla = NCCC(=O)O

Tests used:
[1] = DLS particle size and level of aggregation of ADGN-peptide/pGL4 plasmid DNA complexes; assay type: physicochemical; conditions: pGL4 5.6 kb plasmid
Method: Complex formation with plasmid DNA. The following protocols were used for the transfection of 2-5 106 Cells or Cells at confluency of about 70-80% cultured in 24 well plates. ADGN peptide/plasmid DNA pGL4 particles were prepared at a 20:1 molar ratio of ADGN-Peptide/pGL4. using (0.2 μg). PGL4 plasmid (0.15 μg) was diluted in 20 μl of sterile water (GIBCO) at room temperature. 10 μl Final Peptide Solution was added to obtain a total volume of 20 μl. The volume was adjusted to 50 μl with sterile water and was mixed gently with vortex 1 min low speed and incubated 30 min at room temperature. Then the volume was made up to 100 μl by adding sterile water containing 5% sucrose, and the solution was mixed gently with vortex 1 min low speed and incubate 5 min at 37° C. and then was proceeded to cell transfection.
The ability of the different ADGN-peptides to form stable nanoparticles with DNA pGL4 a 5.6KpB plasmid expression Luciferase was analyzed. The particle sizes and level of aggregation were measured on DLS NanoZS (Malvern Ltd). The mean size and the polydispersity of the ADGN/plasmid DNA complexes were determined at 25° C. for 3 minute per measurement. In order to remove large particles, ADGN/plasmid DNA complexed were filtered using either PES or PVDF 0.45 μm filters. Data are shown in FIG. 10 for a mean of 3 separate experiments.

mice [2] = experiment: In vivo delivery of Luciferase mRNA, intravenous administration, bioluminescence imaging; conditions: 5 μg Luc mRNA; for mRNA / luciferase expression and tissues: single dose
Method: FIGS. 4A-4D show the potency of ADGN-peptide variants for in vivo delivery of Luciferase mRNA via intravenous administration in mice. ADGN-peptide/luc mRNA particles containing 5 μg mRNA were formed in sterile water, and then diluted in 5% sucrose. Mice received IV injection of 100 μl ADGN-peptide/mRNA complexes. mRNA LUC expression was monitored by bioluminescence imaging after 12 h, 24 h, 48 h and 72 h. FIG. 4B show bioluminescence imaging at 24 hr in control and treated groups. Semi-quantitative data of luciferase signal in the liver (C) and in the lung (D) were obtained using the manufacturer's software (Living Image; PerkinElmer). Results were then expressed as values relative to day 0.
(§1) Stable ADGN-peptides/mRNA were evaluated for in vivo delivery of Luciferase mRNA via intravenous and intramuscular administrations. Animals were treated with single dose of 5 moU modified Luc mRNA of 5 μg. 5 moU modified Luc mRNA (5 μg) in sterile water (GIBCO) were mixed with ADGN peptide (sterile water), volume for each sample was adjusted to 100 μl, with sterile water containing 5% Sucrose. Samples were mixed gently with vortex for 1 minute at low speed and incubated for 30 min at room temperature. Samples were filtered on 0.45 μm PES filters prior administration. For IV administration Mice received 100 μl intravenous (IV) injection of either ADGN-106/mRNA, ADGN-100/mRNA, ADGN-106RI/mRNA, ADGN-100-stearyl/mRNA, ADGN-100Hydro1/mRNA, ADGN-100Hydro2 or ADGN/mRNA complexes containing 10% of ADGN-100PEG (3 animals per group). As control, mice from group 3 (2 animals per group) received IV injection of 100 μl of naked 5 moU modified Luc mRNA (5 μg). For IM administration, mice received 25 μl (5 μg mRNA) IV injection of either ADGN-100/mRNA, ADGN-106/mRNA, ADGN-106RI/mRNA or ADGN/mRNA complexes containing 10% or 20% of ADGN-100PEG (2 animals per group). As control, mice from group 3 (2 animals per group) received IV injection of 25 μl of naked 5 moU modified Luc mRNA (5 μg).
(§2) mRNA Luc expression was monitored by bioluminescence. Bioluminescence imaging was performed after 12, 24, 48 and 72 hrs. Mice received an i.p. injection of 150 μg/g luciferin for noninvasive bioluminescence imaging (IVIS Kinetic; PerkinElmer, Waltham, MA, USA).

mice [3] = experiment: In vivo delivery of Luciferase mRNA, intramuscular administration, bioluminescence imaging; conditions: IM, Luc mRNA
Method: FIGS. 5A-5B show the potency of ADGN-peptide variants for in vivo delivery of Luciferase mRNA via intramuscular administration in mice. ADGN-peptide/luc mRNA particles containing 2.5 μg mRNA were formed in sterile water, and then diluted in 5% sucrose. Mice received […] injection o 25 μl ADGN-peptide/mRNA complexes. mRNA LUC expression was monitored by bioluminescence imaging after 12 h, 24 h and 48h (A). FIG. 5B show bioluminescence imaging at 24 hr in control and treated groups.
as §1, §2

| Substance | ability to form stable nanoparticles/complex with plasmid DNA [1] | increase of luciferase expression / efficiency relative to ADGN-106 (mice [2]; all / different tissues) | mRNA / luciferase expression and tissues (mice [2]) | increase of luciferase expression in the muscle / efficiency relative to ADGN-106 (mice [3]) | luciferase expression (mice [3]) | efficiency relative to ADGN-100 (mice [2]) | efficiency relative to ADGN-100 stearyl (mice [2]) |
| --- | --- | --- | --- | --- | --- | --- | --- |
| akwllrwlsrwlrwlarwlr ([dA][dK][dW][dL][dL][dR][dW][dL][dS][dR][dW][dL][dR][dW][dL][dA][dR][dW][dL][dR]; also: retro-inverso) [ADGN-106-RI] | did not improve the potency of ADGN-106 to form stable particle with plasmid | 2 fold | mainly observed in the liver and at lower level in the lung and the kidney | 6 fold | mediated Luciferase expression following intramuscular (IM) administration | – | – |
| Stearyl-βA-KWRSALWRWRLWRVRSWSR-NH2 (Stearyl-[βAla]KWRSALWRWRLWRVRSWSR-NH2; not fully specified; printed as Stearyl-βA-KWRSALWRWRLWRVRSWSR-NH2) [ADGN-100 Stearyl] | – | – | mainly observed in the liver and at lower level in the lung and the kidney | – | – | – | – |
| rswsrvrwlrwrwgasrwk ([dR][dS][dW][dS][dR][dV][dR][dW][dL][dR][dW][dR][dW]G[dA][dS][dR][dW][dK]; also: retro-inverso) [ADGN-100-RI] | did not modifie the ability of the peptide to form stable complex with plasmid DNA | – | – | – | – | – | – |
| βALWRALWRLWRSLWRLLWKA ([βAla]LWRALWRLWRSLWRLLWKA) [ADGN-106] | large size and a the poor stability | – | mainly observed in the liver and at lower level in the lung and the kidney | – | mediated Luciferase expression following intramuscular (IM) administration | 4 folds | 2 folds |
| Ac-GYVS-(G)4-KWRSALWRWRLWRVRSWSR-NH2 (Ac-GYVSGGGGKWRSALWRWRLWRVRSWSR-NH2) [ADGN-100 hydro-2] | – | – | negligible luciferase expression | – | – | – | – |
| βAKWRSAGWRWRLW RVRSWSR (AKWRSAGWRWRLWRVRSWSR; N-terminal beta-alanine; VARIANT 1 beta-A) [ADGN-100] | – | – | mainly observed in the liver and at lower level in the lung and the kidney | – | no significant expression | – | – |
